The target in test [1] is human emopamil binding protein and human 7-dehydrocholesterol reductase (hEBP-DHCR7) (Homo sapiens (Human), UniProt Q15125). Put plainly: hEBP-DHCR7 radioligand binding assay (filter binding, membranes of co-expressing HEK293 cells). The settings on record: competition with [3H] radioligand, 8 doses 0.06 to 5000 nM, Ki calculated from IC50. On the procedure: Membrane Preparation: human emopamil binding protein and human 7-dehydrocholesterol reductase co-expressing cells were generated by transient transfecting host human embryonic kidney (HEK) 293 cells with 2 DNA constructs containing each protein's coding sequence. Cells were suspension cultured at 37° C. with 5% CO2 in […] 293 Expression Medium (Thermofisher). Whole cell membrane was prepared by harvesting the cell pellet, adding cold membrane buffer (50 mM Tris, pH7.5, 1× Roche COMPLETE EDTA-free protease inhibitor cocktail) 10 times volume of the cell pellets weight, lysing cell pellet on ice by using Dounce homogenizer, spinning at 200 g 4° C. for 15 min, collecting supernatant and spinning again at 25000 g 4° C. for 50 min, transferring pellet to Dounce homogenizer, re-suspending pellet by homogenizing in membrane buffer on ice to reach ˜25 mg/mL, then keeping whole cell membrane aliquots at −80° C.
Compounds were prepared in a 96-well U bottom plate (Corning Cat #7007) using an Echo550 machine and 10 mM compound DMSO stock solution, followed by an 8-dose 5-fold serial dilutions protocol with final testing compound concentration ranging from 0.06 to 5000 nM, with DMSO back fill to 100 nL/well and n=2. […] The UniFilter-96 GF/B plates (PerkinElmer Cat #6005177) were pre-treated by adding 50 μl/well of 0.3% (v/v) Polyethylenimine (PEI) (branched, Sigma Cat #408727) to UniFilter-96 GF/B plates. The plates were sealed and incubated at 4° C. for 3 hrs. Then, the plates were washed with ice-cold assay buffer 3 times. The radioligand binding assay was prepared by adding assay buffer diluted hEBP-DHCR7 membrane at 66.7 µg/ml×150 μl/well into the 96-well compound plate to reach 10 μg membrane per well. Then, the assay buffer diluted [3H]—(S)-6-(2-Methyl-3-(6-(trifluoromethyl)pyridin-3-yl)propyl)-2-thia-6-azaspiro[3.4]octane 2,2-dioxide (Moravek, Cat #MT-1003106) was added at 25 nM×50 μl/well. Following this, the plate was centrifuged at 1000 rpm for 30 secs. The plate was then sealed and agitated at 600 rpm at 22° C. for 5 min, and then incubated at 22° C. for 3 hrs. The incubation was stopped by transferring the binding solution to the pre-treated UniFilter-96 GF/B plate, vacuum filtrated, and then washed four times with ice-cold assay buffer. Following this, the plates were dried at 37° C. for 45 min. The plates were then sealed at the bottom. 40 µl/well of scintillation cocktail was added to the plates. A MicroBeta2 microplate counter was then used to read the plate and analyze the data. For reference and test compounds, the results are expressed as % Inhibition, using the normalization equation: N=100−100×(U−C2)/(C1−C2), where U is the unknown value, C1 is the average of high controls, and C2 is the average value of low controls.

The test system of test [2] is zymostenol accumulation (EBP) in EpiSC-derived OPCs. Put plainly: GC/MS-based sterol profiling, zymostenol accumulation in EpiSC-derived OPCs. The format is cell-based, mouse. As to conditions: Mus musculus, 24 h, EpiSC-derived OPCs, 24 hr, 8 doses from 0.15 nM to 333 nM; read-out: Mouse Zymostenol GCMS EC50. On the procedure:
To assess effects of treatments on OPCs, all treatments were assayed in two or more independent platings of epiblast stem cell-derived OPCs (EpiSC). EpiSC-derived OPCs were obtained using in vitro differentiation protocols and culture conditions described previously (Najm et al, 2011, Nature Methods). OPCs were expanded and frozen down in aliquots. OPCs were thawed into growth conditions for at least one passage before use in further assays.
Sterols were monitored using a modified Folch wash protocol (Hubler et al, 2018, Nature). EpiSC-derived OPCs were plated at 100,000 cells per well in PO- and laminin-coated 96-well plates in N2B27 media without growth factors. After 24 hours, cells were rinsed with saline and plates were frozen. Cholesterol-d7 standard was then added to each well before drying under nitrogen stream and derivatization with 55 μl of bis(trimethylsilyl) trifluoroacetamide. After derivatization, 2 μl were analyzed by gas chromatography/mass spectrometry using an Agilent 5973 Network Mass Selective Detector equipped with a 6890 gas chromatograph system and a HP-5MS capillary column (30 m×0.25 mm×[…]). Samples were analyzed in full scan mode using electron impact ionization; ion fragment peaks were integrated to calculate sterol abundance, and quantitation was relative to cholesterol-d7. The following ion fragments were used to quantitate each metabolite: cholesterol-d7 (465), FF-Mas (482), cholesterol (368), zymostenol (458), zymosterol (456), Desmosterol (456, 343), 7-dehydrocholesterol (456, 325), lanosterol (393), lathosterol (458), 14-dehydrozymostenol (456, 351). […] All standards were obtained from Avanti Polar Lipids unless otherwise indicated. Calibration curves were generated by injecting varying concentrations of sterol standards and maintaining a fixed amount of cholesterol-D7. For normalized zymostenol accumulation results, the total amount of zymostenol measured after drug treatment was divided by the total amount of zymostenol accumulated after 24 hr treatment with 100 nM positive control reference.

human emopamil binding protein and human 7-dehydrocholesterol reductase (hEBP-DHCR7), sequence (Q15125 whole entry): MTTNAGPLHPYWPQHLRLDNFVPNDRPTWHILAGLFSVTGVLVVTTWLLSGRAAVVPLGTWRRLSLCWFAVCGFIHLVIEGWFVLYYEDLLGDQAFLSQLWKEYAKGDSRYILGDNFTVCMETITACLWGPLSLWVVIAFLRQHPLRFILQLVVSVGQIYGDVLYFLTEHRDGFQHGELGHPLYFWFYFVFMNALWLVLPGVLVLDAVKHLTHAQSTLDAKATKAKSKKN

For orientation: Ki means a measure of affinity in units of concentration, obtained from inhibition or displacement. For orientation: EC50 means the concentration giving half of the maximal effect. For `CC[C@H]1CN([C@@H]2CC[C@H](c3nc(-c4ccc(C(F)(F)F)nc4)nn3C(C)C)C2)CCO1` [Compound 128, (S)-2-Ethyl-4-((1R,3S)-3-(1-isopropyl-3-(6-(trifluoromethyl)pyridin-3-yl)-1H-1,2,4-triazol-5-yl)cyclopentyl)morpholine], the Ki in test [1] was 118 nM. Further, the EC50 in test [2] turned out to be 16.6 nM.
On to `CC[C@@H]1CN([C@@H]2CC[C@H](c3nc(-c4cncc(Cl)c4)nn3C(C)C)C2)CCO1` [Compound 129, (R)-4-((1R, 3S)-3-(3-(5-Chloropyridin-3-yl)-1-isopropyl-1H-1,2,4-triazol-5-yl)cyclopentyl)-2-ethylmorpholine], for which the inhibitory constant (Ki) in test [1] was 23.2 nM. For the same compound, the concentration giving a half-maximal response (EC50) in test [2] is 2.79 nM.
For the compound `CC(C)n1nc(-c2cnc(C(F)(F)F)nc2)nc1[C@H]1CC[C@H](N2CCO[C@H](C)C2)C1` [Compound 145, (R)-4-((1S,3S)-3-(1-isopropyl-3-(2-(trifluoromethyl)pyrimidin-5-yl)-1H-1,2,4-triazol-5-yl)cyclopentyl)-2-methylmorpholine], the inhibition constant Ki in test [1] was 299 nM. Moreover, the EC50 in test [2] came to 83.5 nM.
In the same order, the values of `CC[C@@H]1CN([C@@H]2CC[C@H](c3nc(-c4cnc(C(F)(F)F)c(F)c4)nn3C(C)C)C2)CCO1` [Compound 146, (R)-2-Ethyl-4-((1R,3S)-3-(3-(5-fluoro-6-(trifluoromethyl)pyridin-3-yl)-1-isopropyl-1H-1,2,4-triazol-5-yl)cyclopentyl)morpholine] are 11.3 nM and 0.94 nM.
In the same order, the values of `CC[C@H]1CN([C@@H]2CC[C@H](c3nc(-c4cnc(C(F)(F)F)c(F)c4)nn3C(C)C)C2)CCO1` [Compound 147, (S)-2-Ethyl-4-((1R,3S)-3-(3-(5-fluoro-6-(trifluoromethyl)pyridin-3-yl)-1-isopropyl-1H-1,2,4-triazol-5-yl)cyclopentyl)morpholine] are 1740 nM and 14.5 nM.
`CC(C)n1nc(-c2cnc(C(F)(F)F)nc2)nc1[C@@H]1CC[C@H](N2CCO[C@H](C)C2)C1` [Compound 148, (R)-4-((1S,3R)-3-(1-Isopropyl-3-(2-(trifluoromethyl)pyrimidin-5-yl)-1H-1,2,4-triazol-5-yl)cyclopentyl)-2-methylmorpholine]: the Ki in test [1] was 22.2 nM. Also, in test [2], the EC50 turned out to be 13.4 nM.
As to `CC(C)n1nc(-c2cnc(C(F)(F)F)nc2)nc1[C@@H]1CC[C@@H](N2CCO[C@H](C)C2)C1` [Compound 149, (R)-4-((1R,3R)-3-(1-Isopropyl-3-(2-(trifluoromethyl)pyrimidin-5-yl)-1H-1,2,4-triazol-5-yl)cyclopentyl)-2-methylmorpholine], the inhibition constant (Ki) in test [1] is 68.3 nM. Besides, the half-maximal effective concentration (EC50) in test [2] was 129 nM.
With `CC(C)n1nc(-c2cnc(C(F)(F)F)nc2)nc1[C@@H]1CC[C@H](N2CCO[C@@H](C)C2)C1` [Compound 150, (S)-4-((1S,3R)-3-(1-Isopropyl-3-(2-(trifluoromethyl)pyrimidin-5-yl)-1H-1,2,4-triazol-5-yl)cyclopentyl)-2-methylmorpholine], the inhibition constant (Ki) in test [1] is 3540 nM. In addition, the concentration for a half-maximal effect (EC50) in test [2] is 946 nM.
As for `CC(C)n1nc(-c2cnc(C(F)(F)F)nc2)nc1[C@@H]1CC[C@@H](N2CCO[C@@H](C)C2)C1` [Compound 151, (S)-4-((1R,3R)-3-(1-Isopropyl-3-(2-(trifluoromethyl)pyrimidin-5-yl)-1H-1,2,4-triazol-5-yl)cyclopentyl)-2-methylmorpholine], in test [1], the Ki is 505 nM. For the same compound, the EC50 in test [2] amounted to 129 nM.
In the same order, the values of `CC[C@@H]1CN([C@@H]2CC[C@@H](c3nc(-c4cnc(C(F)(F)F)nc4)nn3C(C)C)C2)CCO1` [Compound 153, (R)-2-Ethyl-4-((1R,3R)-3-(1-isopropyl-3-(2-(trifluoromethyl)pyrimidin-5-yl)-1H-1,2,4-triazol-5-yl)cyclopentyl) morpholine] are 58.2 nM and 13.4 nM.

Values taken from patent publication US20260008775A1, “AZOLE MODULATORS OF CHOLESTEROL BIOSYNTHESIS AND THEIR USE FOR PROMOTING REMYELINATION” (GENENTECH, INC., priority 2022, published 2026).
